Laboratory results reported in US20250127896A1, “CHIMERIC TIM4 RECEPTORS AND USES THEREOF” (CERO THERAPEUTICS HOLDINGS, INC., priority 2021, published 2025).

Key:
[1] = system: A2780 ovarian cancer cells; experiment: Cytokine production by CER T cells co-cultured with PARP inhibitor-treated A2780 cells; format: cell-based, human; settings: for TNF-α, IFN-γ, granzyme B induction: PARP inhibitor-treated A2780, E:T 1:1
Method: FIGS. 35A-35C: Cytokine production by CER T cells in response to co-culture with PARP inhibitor-treated A2780 ovarian cancer cells. Samples from left to right: no drug, niraparib treated, and olaparib treated. FIG. 35A-IFN-γ. FIG. 35B-TNF-α. FIG. 35C-granzyme B.
CER T-cell activation was assessed by measuring induction of IFN-gamma by plate- and cell-based assays. Single induction plate assay: varying concentrations of phosphatidylserine (PS) or phosphatidylethanolamine (PE), a control membrane phospholipid not recognized by wild type TIM-4 (wtTIM-4), were coated onto high-binding tissue culture plates. CER T cells were added and IFN-γ levels were measured 24 hours after ligand exposure by ELISA. EC50 concentrations were determined by nonlinear regression (agonist vs. response-variable slope (4 parameters)). Induction by recursive stimulation plate assay: CER T cells were added to phosphatidylserine coated plates (2.5-20 μg/mL PS coating). Five days later, CER T cells were transferred to uncoated plates with fresh T cell optimizer media for 24 hours. Then, CER T cells were transferred again to a fresh PS coated plate. Supernatant was collected to assess IFN-γ induction by ELISA at various timepoints during re-stimulation (24, 72, and 120 hours). Cell-based assay: cytokine induction was assessed by multiparametric ELISA using conditioned supernatants harvested after 120 hours from the cytotoxicity assay described below.

[2] = system: E7 TCR T cells; experiment: APC-like function after co-culture with PS-positive E7-positive SCC152 cells: HLA-DR/CD25 on E7 TCR T cells; format: cell-based; settings: for antigen presentation function versus untransduced T cells: FIG. 52, FIG. 53; for activation (HLA-DR) of autologous E7 TCR T cells: after co-culture with E7-positive/PS-positive SCC152 cells, vs untransduced T cells or anti-CD19 CAR T cells; for antigen presentation function, overall (FIGS. 50-54): repeated experiments
Text: FIGS. 25A-25B: CER1236 T cells activate E7 TCR T cells via presentation of tumor cell-derived E7 antigen in an HLA-I-dependent manner. […] FIG. 25B: In a separate experiment, induction of HLA-DR on E7 TCR cells following co-culture of CER-1236 with E7 oncoprotein positive/PS-positive SCC152 cells was blocked by HLA-I blocking antibody, but not a control isotype antibody. Bars depict percentage of E7 TCR T cells that express the activation marker, HLA-DR. Error bars show SEM.
FIGS. 36A-36B: CER1236 T cells activate E7 TCR T cells via presentation of tumor cell-derived E7 antigen in an HLA-I-dependent manner. […] FIG. 6B: In a separate experiment, induction of HLA-DR on E7 TCR cells following co-culture of CER-1236 with E7 oncoprotein positive/PS-positive SCC152 cells was blocked by HLA-I blocking antibody, but not a control isotype antibody. Bars depict percentage of E7 TCR T cells that express the activation marker, HLA-DR. Error bars show SEM.
CER1183, CER1161, CER1234 or CER1236 T cells were cultured alone or co-cultured with phosphatidylserine-positive HPV E7 oncoprotein-positive cells (TMEM30A−/− SCC152) for 48 hours, followed by positive selection of T cells and co-culture for a 4 days with cell trace violet labeled-HPV E7 TCR T cells.
CER1183, CER1161, CER1234 or CER1236 T cells were cultured alone or co-cultured with phosphatidylserine-positive HPV E7 oncoprotein-positive cells (TMEM30A−/−SCC152) for 48 hours, followed by positive selection of T cells and co-culture for 4 days (FIG. 51, left graph) or 6 days (FIG. 51, right graph) with cell trace violet labeled-HPV E7 TCR T cells.
CER1183, CER1161, CER1234 or CER1236 T cells were cultured alone or co-cultured with phosphatidylserine-positive HPV E7 oncoprotein-positive cells (TMEM30A−/− SCC152) for 48 hours, followed by positive selection of T cells and co-culture for 4 days with cell trace violet labeled-HPV E7 TCR T cells.
CER1183, CER1161, CER1234 or CER1236 T cells were cultured alone or co-cultured with phosphatidylserine-positive HPV E7 oncoprotein-positive cells (TMEM30A−/−SCC152) for 48 hours, followed by positive selection of T cells and co-culture for 6 days with cell trace violet labeled-HPV E7 TCR T cells.
Antigen-presenting cell (APC)-like function of CER T cells was assessed after a 48-hour co-culture with phosphatidylserine-positive E7 oncoprotein-positive cells. T cells were separated and co-cultured for 4 days with cell trace violet-labeled E7 TCR T cells. The activation marker HLA-DR on E7 TCR T cells was analyzed using flow cytometry. Phosphatidylserine-positive SCC152 squamous cell carcinoma cells were engineered by knockout of the TMEM30A gene (a flippase chaperone required for PS internalization). The role of HLA-I in APC-like function was determined by performing the same experiment in the presence of HLA-I blocking or the corresponding isotype antibodies.
Phosphatidylserine exposure on A2780 ovarian cancer cells upon treatment with the small molecule PARP inhibitors niraparib or olaparib was evaluated by annexin v staining to determine the appropriate drug dose. Phosphatidylserine targeting Tim-4 CER constructs designed to enhance cytotoxicity and target-dependent tumor cell fragment uptake were engineered. CER T cell designs were as follows: CER-1234 (Tim-4/CD28/TLR2/CD3z; SEQ ID NO:18); CER-1236 (Tim-4/CD28/CD3z/TLR2; SEQ ID NO:19); and CER-1250 (Tim-4 binding mutant/CD28/TLR2/CD3z; SEQ ID NO:24). CER-1250 has the same intracellular signaling domains as […] but has a mutated IgV domain with AAAA substitution to abrogate phosphatidylserine binding. Niraparib (0.5 μM) and olaparib (1.5 μM) were used to expose phosphatidylserine on the surface of A2780 cells for CER T cell recognition and cytotoxicity, T-cell activation, and cytokine responses were evaluated. Uptake of antigen by CER-1236 T cells was modeled with human papilloma virus E7 antigen-expressing squamous carcinoma (SCC152) TMEM30A phospholipid flippase knockout cells. […]

[3] = system: Jeko1 TMEM30A−/− cells; experiment: CER T cell cytotoxicity against Jeko1 TMEM30A−/− cells (Incucyte); format: cell-based; settings: for cytotoxic function against Jeko1 TMEM30A−/− cells: co-culture assays
Method: FIG. 22: CER1234 or CER1236 T cells display cytotoxic function against Jeko1 TMEM30A^−/− MCL cells as measured by incucyte assay.
Statistical analysis was performed using 2-way ANOVA.

[4] = either drug combined, 96 hours, compared to CER-1234 with no drug

Substance | TNF-α, IFN-γ, granzyme B induction [1] | HLA-DR MFI versus untransduced T cells ([2]; FIG. 50, FIG. 51, FIG. 54) | antigen presentation function versus untransduced T cells [2] | HLA class I dependence of E7 TCR activation ([2]; HLA-I blocking vs isotype antibody) | activation (HLA-DR) of autologous E7 TCR T cells [2] | activation (HLA-DR) of autologous E7 TCR T cells ([2]; listed as CER1236) | increase of activation status of E7 TCR T cells ([2]; exposed to TMEM30A″ SCC152 cancer cells relative to CER-1236 T cells alone) [fold] | antigen presentation function, overall (FIGS. 50-54) [2] | cytotoxic function against Jeko1 TMEM30A−/− cells [3] | Interferon-γ increase [1, 4] [fold] | granzyme B increase [1, 4] | targets eliminated ([3]; JeKo-1 PS+ cells, 96 hrs, low effector:target ratios) [%]
CER-1236: chimeric Tim4 receptor: Tim4 binding domain-CD28tm-CD28-CD3z-TLR2 TIR, SEQ ID NO:19; tested as transduced T cells | induced | significant difference in HLA-DR MFI | display better antigen presentation function than untransduced T cells | dependent on antigen presentation via the HLA class I system | induced HLA-DR on E7 TCR cells | supported greater activation of autologous E7 TCR T cells | 5 | consistently had better antigen presentation function compared to untransduced T cells | efficiently eliminate Jeko1 TMEM30A^−/− cells |  |  | 
CER-1234: chimeric Tim4 receptor: Tim4 binding domain-CD28tm-CD28-TLR2 TIR-CD3z, SEQ ID NO:18; tested as transduced T cells | induced |  | display better antigen presentation function than untransduced T cells |  |  |  |  | did not show any antigen presentation function over untransduced T cells in some experiments | efficiently eliminate Jeko1 TMEM30A^−/− cells | 7 | 5-7 fold | 90
